Assay results: paper PMC12566703, “Design, Synthesis, In Vitro and In Silico Biological Evaluation of New Pyridine-2,5-Dicarboxylates Esters Bearing Natural Source Fragments as Anti-Trypanosomatid Agents” (Pharmaceutics, 2025)
Where “and” joins values, the source holds several entries; their conditions need not be identical. Identical values can stand only once. Like-named read-outs stand apart in the source and are kept apart here.

Legend:
L. mexicana = tested on: L. mexicana; set-up: method as in doi:10.2174/1573407213666170405121810; details: pyridine compound of Figure 1A; read-out: IC50, leishmanicidal activity; cited from earlier work
Leishmania = tested on: Leishmania; set-up: method as in doi:10.1016/j.molstruc.2018.11.017; details: natural product scaffold of Figure 1B; read-out: IC50, leishmanicidal activity; cited from earlier work
[1] = tested on: T. cruzi (A1) epimastigotes; test: In vitro trypanocidal activity, Alamar Blue assay, 48 h; format: cell-based, Trypanosoma cruzi; details: for Selectivity Index T. cruzi A1: CC50 (J774.2)/IC50; for IC50: Trypanosoma cruzi, 48 h, read-out: T. cruzi IC50 (µM ± SD) A1; for IC50 / Trypanocidal activity class in words, A1 strain: epimastigotes, A1 strain; for Trypanocidal activity class in words, A1 strain: classes by IC50
Experimental: (§1) Both strains were maintained in liver infusion tryptose (LIT) medium supplemented with 10% FBS and 0.1% penicillin-streptomycin. They were preserved by transferring 1 × 10^6 parasites/mL into a new culture medium every week. […] The metabolic activity was determined by the Alamar Blue assay. Briefly, after the incubation period, 20 µL of 2.5 mM resazurin solution was added to each well and incubated for 3 h. Three independent experiments were performed in triplicate. The half-maximum inhibitory concentration (IC50) was determined using probit analysis.

[2] = tested on: T. cruzi (NINOA) epimastigotes; test: as above; format: cell-based, Trypanosoma cruzi; details: for Selectivity Index T. cruzi NINOA: CC50 (J774.2)/IC50; for IC50: 48 h, read-out: T. cruzi IC50 (µM ± SD) NINOA; for IC50 / Trypanocidal activity class in words, NINOA strain: epimastigotes, NINOA strain; for Trypanocidal activity class in words, NINOA strain: classes by IC50
Experimental: as §1

[3] = Cytotoxicity assay, MTT method, 48 h; format: cell-based, murine; details: mouse, J774.2 macrophage cells, J774.2 cell line, read-out: Macrophage J774.2 CC50 (µM ± SD)
Experimental: (§2) A cytotoxicity assay was performed using the murine macrophage J774.2 cell line, which was recloned from the original ascites and solid tumor J774.1 (according to the manufacturer). The cells were cultured in RPMI medium supplemented with 10% SBF, 100 U […] penicillin, 100 µg/mL streptomycin, and glutamine (2 mM), and 5% CO2 atmosphere. The medium was changed every 2–3 days. Macrophages were used at 1 × 10^6 cells and were incubated with compounds at different concentrations (0.75–100 µM, respectively) at 37 °C for 48 h in a 5% CO2 atmosphere. DMSO was used as a negative control (0.2%). The metabolic activity of macrophages was determined by the MTT method. The percentage of cell viability was calculated, and the half-maximal cytotoxic concentration (CC50) was determined using probit analysis. Three independent assays were conducted in triplicate.

[4] = tested on: L. mexicana (MNYC/BZ/62/M379) (M379) promastigotes; test: In vitro leishmanicidal activity, MTT method, 48 h; format: cell-based, Leishmania mexicana; details: for Selectivity Index L. mexicana M379: CC50 (J774.2)/IC50; for IC50: 48 h, read-out: L. mexicana IC50 (µM ± SD) M379; for IC50 / Leishmanicidal activity class in words, M379 strain: promastigotes, M379 strain; for Leishmanicidal activity class in words, M379 strain: classes by IC50
Experimental: (§3) To determine the leishmanicidal activity of pyridine-2,5-dicarboxylates, the parasites, in their logarithmic growth phase (5 × 10^5 parasites/mL), were cultured in 96-well microliter plates with the corresponding pyridine-2,5-dicarboxylate compound at different concentrations (0.78–100 µM). Compounds were dissolved in DMSO in a final volume of 200 µL for 48 h at 26 °C. Parasites treated with DMSO (0.2%) were used as a negative control, while treatments with Glucantime and Amphotericin B, at the same concentrations, were used as positive controls. The metabolic activity of the cells was determined using the 3-(4,5-Dimethylthiazol-2-yl)-2,5-diphenyltetrazolium bromide (MTT) method. IC50 was determined using probit analysis. Three independent experiments were performed in triplicate, and the data were analyzed for statistical significance (p < 0.05) using Biostat 5.3.0 software.

[5] = tested on: L. mexicana (MHOM/MX/2017/UABJO17FCQEPS) (FCQEPS) promastigotes; test: In vitro leishmanicidal activity, MTT method, 48 h; format: cell-based, Leishmania mexicana; details: for Selectivity Index L. mexicana FCQEPS: CC50 (J774.2)/IC50; for IC50: 48 h, read-out: L. mexicana IC50 (µM ± SD) FCQEPS; for IC50 / Leishmanicidal activity class in words, FCQEPS strain: promastigotes, FCQEPS strain; for Leishmanicidal activity class in words, FCQEPS strain: classes by IC50
Experimental: as §3

T. cruzi = details: read-out: IC50, trypanocidal activity, cited from earlier work
[6] = tested on: murine macrophage J774.2 cell line; test: Cytotoxicity assay, MTT method, 48 h; format: cell-based; details: read-out: Macrophage J774.2 CC50 (µM ± SD)
Experimental: as §2

Cc1ccc(O)c(C(=O)c2cnc3[nH]nc(C)c3c2)c1 [Compound 7]
IC50 (L. mexicana): 31 µM

CC1=CC[C@H](C(C)(C)NC(=S)N/N=C/c2ccc([N+](=O)[O-])cc2)CC1 [Compound 8d]
IC50 (Leishmania): 2.4 µM

CCOC(=O)c1nc(C)c(C(=O)OCC23CC4CC(CC(C4)C2)C3)cc1-c1ccccc1 [Compound 10a]
Selectivity Index T. cruzi A1 [1]: >4.3 | IC50 [1]: 46.9 µM | Selectivity Index T. cruzi NINOA [2]: >1.9 | IC50 ([2]; Trypanosoma cruzi): 105 µM | IC50 [2]: 105 ± 1.34 µM | CC50 at 48 h [3]: > 200 µM | Selectivity Index L. mexicana M379 [4]: >2.4 | IC50 ([4]; Leishmania mexicana): ≤ 162 µM | IC50 [4]: 82.19 ± 0.01 µM | Selectivity Index L. mexicana FCQEPS [5]: >1.2 | IC50 ([5]; Leishmania mexicana): ≤ 162 µM | IC50 [5]: 161.53 ± 0.03 µM

CCOC(=O)c1nc(C)c(C(=O)OCC23CC4CC(CC(C4)C2)C3)cc1-c1ccc(C)cc1 [Compound 10b]
Selectivity Index T. cruzi A1 [1]: >1.8 | IC50 [1]: 111 ± 1.14 µM | IC50 ([2]; Trypanosoma cruzi): < 26.4 µM | IC50 [2]: 20.98 ± 0.15 µM | CC50 at 48 h [3]: > 200 µM | Selectivity Index L. mexicana M379 [4]: >1 | IC50 ([4]; Leishmania mexicana): > 200 µM | Selectivity Index L. mexicana FCQEPS [5]: >2.1 | IC50 ([5]; Leishmania mexicana): 92.93 ± 0.02 µM

CCOC(=O)c1nc(C)c(C(=O)OCC23CC4CC(CC(C4)C2)C3)cc1-c1ccc(F)cc1 [Compound 10c]
Selectivity Index T. cruzi A1 [1]: >5.2 | IC50 [1]: 38.2 ± 2.86 µM | Selectivity Index T. cruzi NINOA [2]: >4.0 | IC50 ([2]; Trypanosoma cruzi): 50.6 ± 1.06 µM | CC50 at 48 h [3]: > 200 µM | Selectivity Index L. mexicana M379 [4]: >3.6 | IC50 ([4]; Leishmania mexicana): < 56 µM | IC50 [4]: 54.8 µM | Selectivity Index L. mexicana FCQEPS [5]: >1 | IC50 ([5]; Leishmania mexicana): > 200 µM | Leishmanicidal activity class in words, FCQEPS strain [5]: abolished their leishmanicidal activity

Clc1ccc(-c2csc(N/N=C/c3ccccn3)n2)cc1Cl [Compound 11]
IC50 (T. cruzi; pyridine compound of Figure 1A): 4 µM

CCOC(=O)c1nc(C)c(C(=O)OCCC(C)CCC=C(C)C)cc1-c1ccccc1 (centres unmarked) [Compound 11a]
IC50 [1]: > 200 µM | IC50 ([2]; Trypanosoma cruzi): > 200 µM | Trypanocidal activity class in words, NINOA strain [2]: inactive | CC50 at 48 h [3]: 119 ± 7.3 µM | IC50 ([4]; Leishmania mexicana): > 200 µM | Leishmanicidal activity class in words, M379 strain [4]: did not have antiparasitic activity | Selectivity Index L. mexicana FCQEPS [5]: 1.6 | IC50 ([5]; Leishmania mexicana): 73 ± 1.78 µM

CCOC(=O)c1nc(C)c(C(=O)OCCC(C)CCC=C(C)C)cc1-c1ccc(C)cc1 (centres unmarked) [Compound 11b]
Selectivity Index T. cruzi A1 [1]: 3.3 | IC50 [1]: 51.6 ± 0.59 µM | IC50 ([2]; Trypanosoma cruzi): > 200 µM | Trypanocidal activity class in words, NINOA strain [2]: inactive | CC50 at 48 h [3]: 169 µM | CC50 [6]: 169.8 ± 1.3 µM | IC50 ([4]; Leishmania mexicana): > 200 µM | Leishmanicidal activity class in words, M379 strain [4]: did not have antiparasitic activity | IC50 ([5]; Leishmania mexicana): > 200 µM

CCOC(=O)c1nc(C)c(C(=O)OCCC(C)CCC=C(C)C)cc1-c1ccc(F)cc1 (centres unmarked) [Compound 11c]
Selectivity Index T. cruzi A1 [1]: >8.0 | IC50 [1]: 24.9 ± 4.1 µM | Selectivity Index T. cruzi NINOA [2]: >2.5 | IC50 ([2]; Trypanosoma cruzi): 79.9 ± 2.6 µM | CC50 at 48 h [3]: > 200 µM | Selectivity Index L. mexicana M379 [4]: >1 | IC50 ([4]; Leishmania mexicana): > 200 µM | Leishmanicidal activity class in words, M379 strain [4]: inactive | Selectivity Index L. mexicana FCQEPS [5]: >1 | IC50 ([5]; Leishmania mexicana): > 200 µM | Leishmanicidal activity class in words, FCQEPS strain [5]: abolished their leishmanicidal activity

CCOC(=O)c1nc(C)c(C(=O)OC/C=C(\C)CCC=C(C)C)cc1-c1ccccc1 [Compound 12a]
Selectivity Index T. cruzi A1 [1]: 0.2 | IC50 [1]: 117.8 ± 0.94 µM | Trypanocidal activity class in words, A1 strain [1]: slight activity | Selectivity Index T. cruzi NINOA [2]: 0.2 | IC50 ([2]; Trypanosoma cruzi): 106 ± 1.43 µM | Trypanocidal activity class in words, NINOA strain [2]: slight trypanocidal activity | CC50 at 48 h [3]: 25 ± 0.8 µM | IC50 ([4]; Leishmania mexicana): > 200 µM | Leishmanicidal activity class in words, M379 strain [4]: did not have antiparasitic activity | Selectivity Index L. mexicana FCQEPS [5]: 0.3 | IC50 ([5]; Leishmania mexicana): 75.3 ± 4.28 µM

CCOC(=O)c1nc(C)c(C(=O)OC/C=C(\C)CCC=C(C)C)cc1-c1ccc(C)cc1 [Compound 12b, (E)-5-(3,7-Dimethylocta-2,6-dien-1-yl) 2-ethyl 6-methyl-3-(p-tolyl)pyridine-2,5-dicarboxylate]
Selectivity Index T. cruzi A1 [1]: >1 | IC50 [1]: > 200 µM | Trypanocidal activity class in words, A1 strain [1]: completely lose their trypanocidal activity | Selectivity Index T. cruzi NINOA [2]: >1 | IC50 ([2]; Trypanosoma cruzi): > 200 µM | CC50 at 48 h [3]: > 200 µM | Selectivity Index L. mexicana M379 [4]: >3.6 | Selectivity Index L. mexicana FCQEPS [5]: >3.5

CCOC(=O)c1nc(C)c(C(=O)OC/C=C(\C)CCC=C(C)C)cc1-c1ccc(F)cc1 [Compound 12c]
Selectivity Index T. cruzi A1 [1]: >4.0 | IC50 [1]: 50.1 ± 1 µM | Selectivity Index T. cruzi NINOA [2]: >4.1 | IC50 ([2]; Trypanosoma cruzi): 49.1 ± 2.5 µM | CC50 at 48 h [3]: > 200 µM | Selectivity Index L. mexicana M379 [4]: >2.3 | IC50 ([4]; Leishmania mexicana): 85.98 ± 0.02 µM | Selectivity Index L. mexicana FCQEPS [5]: >1.7 | IC50 ([5]; Leishmania mexicana): 114 ± 7.03 µM

CNC[C@H](O)[C@@H](O)[C@H](O)[C@H](O)CO.[O]=[Sb](=[O])[OH] [Glc, Glucantime, reference compound]
CC50 [6]: 273 µM | Selectivity Index L. mexicana M379 [4]: 2.0 | Selectivity Index L. mexicana M379 ([4]; listed as Glucantime): 2.03 | IC50 ([4]; listed as Glucantime): 134 µM and > 125 µM | IC50 [4]: 134 ± 4.32 µM | Selectivity Index L. mexicana FCQEPS [5]: 2.2 | Selectivity Index L. mexicana FCQEPS ([5]; listed as Glucantime): 2.18 and 2 | IC50 ([5]; listed as Glucantime): > 125 µM | IC50 [5]: 125 ± 11.6 µM

CC1=CC[C@@H](C(C)(C)Nc2nnc(-c3ccc(C)cc3)s2)CC1 [TDZ 2]
IC50 (T. cruzi; natural product scaffold of Figure 1B): 1.3 µM
